Measurements published in patent publication US4603134A, “Piperazine derivative and pharmaceutical composition containing the same” (Ferrer International, S.A., priority 1984, dated 1986).

Legend:
[1] = test system: isolate of guinea-pig ileum; assay: Anti-histamine activity in an isolate of guinea-pig ileum, suspended in a Tyrode bath at 32°-35° C.; conditions: for IC50: Cavia porcellus, isolated guinea-pig ileum, Tyrode bath, 32°-35° C., read-out: anti-histamine activity, ED50
Procedure: The anti-histamine activity was tested in an isolate of guinea-pig ileum, suspended in a Tyrode bath at 32°-35° C. according to a protocol described by R. A. Turner (Screening Methods in Pharmacology, Academic Press, 1965, p. 43).

[2] = Activity on the blood stream (vasoactive, antiarrhythmic, hypotensor); conditions: no test described
[3] = test system: isolate of guinea-pig ileum; conditions: background statement on the non-fluorine analog; cited from earlier work

| IC50 [1] | Compound | antihistaminic effect compared with non-fluorine analog (in words) ([1]; versus non-fluorine analog (Spanish Pat. No. 514 340)) | activity on the blood stream (in words) [2] | anti-histaminic effect (in words) [3] |
| --- | --- | --- | --- | --- |
| 150 nM | Fc1ccc(C(c2ccc(F)cc2)N2CCN(CCCC3(c4ccccc4)OCCO3)CC2)cc1 [Example 1, 1-(4,4'-difluorobenzhydryl)-4-(2-phenyl-1,3-dioxolane-2-propyl)piperazine] | higher than that of its non-fluorine analog | strong activity on the blood stream |  |
| 350 nM | c1ccc(C(c2ccccc2)N2CCN(CCCC3(c4ccccc4)OCCO3)CC2)cc1 [Spanish Pat. 514 340, reference compound] |  |  | unsatisfactory |
